In patent US10238623B2, “C14-hydroxyl esterified amino acid derivative of triptolide, and preparation method and use thereof” (HANGZHOU WEBEN PHARMACEUTICALS INC, priority 2015, dated 2019):
“And” between values parts separate entries of the source, which are not always exact repeats. Equal entries are not always repeated.

Experiments:
pancreatic cancer = details: cited from earlier work
[1] = test system: human acute myelogenous leukemia KG-1a cells; assay: KG-1a subcutaneous xenograft in NOD/SCID mice; format: in vivo; details: for growth of KG-1a in mice in vivo (in words): KG-1a xenograft, intragastric 2 times a day, dose-dependent effect; for Tumor volume: KG-1a
Procedure: (§1) 7-week old female NOD/SCID mice were taken and inoculated subcutaneously with 1×10^7 cells (0.2 ml) per mouse in axilla, with human acute myelogenous leukemia KG-1a cells on the left and human acute monocytic leukemia THP-1 cells on the right. When tumors grew to a tumor size of around 0.5 cm, the mice were randomized into groups with 3 mice each. An equivalent amount of PBS was used for the control group, and the 14-D-Valine-TPL group was divided into two groups with 0.2 mg/kg body weight and 0.4 mg/kg body weight: intragastric administration 2 times a day (one at 8 a.m. and one at 4 p.m.) for consecutive 14 days of treatment. An observation was made for total 30 days, during which the conditions of the mice such as tumor size, weight, activity, diet, and the like were measured. At the end of the experiment, the mice were sacrificed, tumor tissues were taken and the tumors were weighed, and major organs and tissues of the mice such as liver, spleen, heart, lung, large intestine, small intestine, and the like were examined.
as §1, with “the left.” for “the left and human acute monocytic leukemia THP-1 cells on the right.”, “around 50-100 mm^3,” for “around 0.5 cm,”, “the TPL-LLV” for “the 14-D-Valine-TPL”, “with 0.23” for “with 0.2”, “and 0.46” for “and 0.4”, “intragastric administration,” for “intragastric administration”
as §1, with “the left.” for “the left and human acute monocytic leukemia THP-1 cells on the right.”, “around 50-100 mm^3,” for “around 0.5 cm,”, “the TPL-DLV” for “the 14-D-Valine-TPL”, “with 0.23” for “with 0.2”, “and 0.46” for “and 0.4”, “intragastric administration,” for “intragastric administration”
as §1, with “the left.” for “the left and human acute monocytic leukemia THP-1 cells on the right.”, “around 50-100 mm^3,” for “around 0.5 cm,”, “the TPL-DLV” for “the 14-D-Valine-TPL”, “with 0.32” for “with 0.2”, “and 0.64” for “and 0.4”, “intragastric administration,” for “intragastric administration”

[2] = Body weight and organ examination of tumour-bearing mice; format: in vivo, NOD/SCID mice; details: 14 days, individual mice
Procedure: as §1
as §1, with “the left.” for “the left and human acute monocytic leukemia THP-1 cells on the right.”, “around 50-100 mm^3,” for “around 0.5 cm,”, “the TPL-LLV” for “the 14-D-Valine-TPL”, “with 0.23” for “with 0.2”, “and 0.46” for “and 0.4”, “intragastric administration,” for “intragastric administration”
as §1, with “the left.” for “the left and human acute monocytic leukemia THP-1 cells on the right.”, “around 50-100 mm^3,” for “around 0.5 cm,”, “the TPL-DLV” for “the 14-D-Valine-TPL”, “with 0.23” for “with 0.2”, “and 0.46” for “and 0.4”, “intragastric administration,” for “intragastric administration”
7-week old female NOD/SCID mice were taken and inoculated subcutaneously with 1×10^7 cells (0.2 ml) per mouse in axilla, with human acute myelogenous leukemia KG-1a cells on the left. When tumors grew to a tumor size of around 50-100 mm^3, the mice were randomized into groups with 3 mice each. An equivalent amount of PBS was used for the control group, and the TPL-DLV group was divided into two groups with 0.32 mg/kg body weight and 0.64 mg/kg body weight: intragastric administration, 2 times a day (one at 8 a.m. and one at 4 p.m.) for consecutive 14 days of treatment. An observation was made for total 30 days, during which the conditions of the mice such as tumor size, weight, activity, diet, and the like were measured. At the end of the experiment, the mice were sacrificed, tumor tissues were taken and the tumors were weighed, and major organs and tissues of the mice such as liver, spleen, heart, lung, large intestine, small intestine, and the like were examined. […]

KG-1a = assay: MTT growth inhibition, KG-1a cells, 72 h; format: cell-based; details: Homo sapiens
Procedure: (§2) 5000 well-grown leukemia cells were taken and seeded into wells of a 96-well cell culture plate. The medium was 1640 cell medium containing 10% fetal bovine serum. 14-D-Valine-TPL with different concentrations was added, and after being uniformly mixed, the plate was placed in a carbon dioxide (5% CO2) cell incubator, and incubated at 37° C. for 72 hours. The concentration of live cells was then determined using the MTT assay. In this experiment, the cell viability in the control group (without the compound treatment) was set to be 100%, and the cell viability (%) after the action of the compound and the half maximal growth inhibitory concentration of leukemia cells at 72 hours (IC50 value at 72 hours) were calculated.

KG-1 = assay: MTT growth inhibition, KG-1 cells, 72 h; format: cell-based; details: Homo sapiens, KG-1, MTT
Procedure: as §2

THP-1 = assay: MTT growth inhibition, THP-1 cells, 72 h; format: cell-based; details: Homo sapiens, THP-1, MTT
Procedure: as §2

[3] = test system: human chronic myelogenous leukemia K562/ADR cells; assay: K562/ADR subcutaneous xenograft in NOD/SCID mice; format: in vivo; details: for growth of K562/ADR cells in mice in vivo (in words): K562/ADR xenograft, intragastric 2 times a day, dose-dependent effect; for Tumor volume: K562/ADR
Procedure: (§3) 7-week old female NOD/SCID mice were taken and inoculated subcutaneously with 1×10^7 cells (0.2 ml) per mouse in axilla, with human K562/ADR cells on the left. When tumors grew to a tumor size of around 50-100 mm^3, the mice were randomized into groups with 3 mice each. An equivalent amount of PBS was used for the control group, and the TPL-DDV group was divided into two groups with 0.23 mg/kg body weight and 0.46 mg/kg body weight: intragastric administration, 2 times a day (one at 8 a.m. and one at 4 p.m.) for consecutive 14 days of treatment. An observation was made for total 30 days, during which the conditions of the mice such as tumor size, weight, activity, diet, and the like were measured. At the end of the experiment, the mice were sacrificed, tumor tissues were taken and the tumors were weighed, and major organs and tissues of the mice such as liver, spleen, heart, lung, large intestine, small intestine, and the like were examined.
as §3, with “TPL-LV” for “TPL-DDV”, “0.2” for “0.23”, “0.4” for “0.46”

For CC(C)[C@]12O[C@H]1[C@@H]1O[C@]13[C@]1(O[C@H]1C[C@H]1C4=C(CC[C@@]13C)C(=O)OC4)[C@@H]2OCOP(=O)(O)O [Minnelide], the toxic effect (pancreatic cancer; at a dosage effective to tumor regression) is listed as “no significant toxic effect” and the survival of mice (pancreatic cancer; nude mouse model of pancreatic cancer) is listed as “prolonged the survival of mice”.

For CC(C)[C@H](N)C(=O)N[C@@H](C(=O)O[C@@H]1[C@@]2(C(C)C)O[C@H]2[C@@H]2O[C@]23[C@]12O[C@H]2C[C@H]1C2=C(CC[C@@]13C)C(=O)OC2)C(C)C [14-L-Valine-D-Valine-TPL, 14-Levo-Valine-Dextro-Valine-Triptolide], the “growth of KG-1a in mice in vivo (in words)” value (shortened to “growth of KG-1a in mice”) ([1]; 14 days) was “significantly inhibit the growth”, the Tumor volume ([1]; trifluoroacetate 0.23 mg/kg intragastric 2 times a day, 14 days, individual mice, listed as DLV) was 562.66 mm^3 and 505.81 mm^3 and 1038.41 mm^3 and the Tumor volume ([1]; trifluoroacetate 0.46 mg/kg intragastric 2 times a day, 14 days, individual mice, listed as DLV) was 90.96 mm^3 and 265.32 mm^3 and 50.35 mm^3. The Body weight ([2]; KG-1a-bearing mice, 0.23 mg/kg intragastric 2 times a day, listed as DLV, 0.23 mg/kg) was 19.5 g and 17.8 g and 19.6 g and the Body weight ([2]; KG-1a-bearing mice, 0.46 mg/kg intragastric 2 times a day, listed as DLV, 0.46 mg/kg) was 19.6 g and 18.5 g and 18.8 g.

With CC(C)[C@H](N)C(=O)N[C@H](C(=O)O[C@@H]1[C@@]2(C(C)C)O[C@H]2[C@@H]2O[C@]23[C@]12O[C@H]2C[C@H]1C2=C(CC[C@@]13C)C(=O)OC2)C(C)C [14-L-Valine-L-Valine-TPL, 14-Levo-Valine-Levo-Valine-Triptolide] the IC50 (KG-1a) was 20 nM, the “growth of KG-1a in mice” value ([1]; 14 days) was “significantly inhibit the growth” and the Tumor volume ([1]; trifluoroacetate 0.23 mg/kg intragastric 2 times a day, 14 days, individual mice, listed as LLV) was 804.56 mm^3 and 644.07 mm^3 and 1105.64 mm^3. The Tumor volume ([1]; trifluoroacetate 0.46 mg/kg intragastric 2 times a day, 14 days, individual mice, listed as LLV) was 383.11 mm^3 and 356.82 mm^3 and 317.61 mm^3, the Body weight ([2]; KG-1a-bearing mice, 0.23 mg/kg intragastric 2 times a day, listed as LLV, 0.23 mg/kg) was 19.4 g and 19.7 g and 20.5 g and the Body weight ([2]; KG-1a-bearing mice, 0.46 mg/kg intragastric 2 times a day, listed as LLV, 0.46 mg/kg) was 20.0 g and 18.9 g and 18.6 g.

For CC(C)[C@H](N)C(=O)O[C@@H]1[C@@]2(C(C)C)O[C@H]2[C@@H]2O[C@]23[C@]12O[C@H]2C[C@H]1C2=C(CC[C@@]13C)C(=O)OC2 [14-L-Valine-TPL, 14-Levo-Valine-Triptolide], the IC50 (KG-1) was 8.86 nM, the IC50 (THP-1) was 5 nM and the “growth of K562/ADR cells in mice in vivo (in words)” value ([3]; 14 days) was “significantly inhibit the growth”. The Tumor volume ([3]; trifluoroacetate 0.2 mg/kg intragastric 2 times a day, 14 days, individual mice, listed as LV) was 73.63 mm^3 and 0 mm^3 and 159.87 mm^3, the Tumor volume ([3]; trifluoroacetate 0.4 mg/kg intragastric 2 times a day, 14 days, individual mice, listed as LV) was 30.71 mm^3 and 96.79 mm^3 and 0 mm^3 and the Body weight ([2]; K562/ADR-bearing mice, 0.2 mg/kg intragastric 2 times a day, listed as LV, 0.2 mg/kg) was 18 g and 22.2 g and 22 g. The Body weight ([2]; K562/ADR-bearing mice, 0.4 mg/kg intragastric 2 times a day, listed as LV, 0.4 mg/kg) was 21.2 g and 20.8 g and 21.1 g.

With CC(C)[C@@H](N)C(=O)N[C@@H](C(=O)O[C@@H]1[C@@]2(C(C)C)O[C@H]2[C@@H]2O[C@]23[C@]12O[C@H]2C[C@H]1C2=C(CC[C@@]13C)C(=O)OC2)C(C)C [14-D-Valine-D-Valine-TPL, 14-Dextro-Valine-Dextro-Valine-Triptolide] the “growth of K562/ADR cells in mice in vivo (in words)” value ([3]; 14 days) was “significantly inhibit the growth”, the Tumor volume ([3]; 0.23 mg/kg, Overall) was 0 mm^3 and the Tumor volume ([3]; 0.46 mg/kg, Overall) was 0 mm^3. For the same molecule, the Tumor volume ([3]; trifluoroacetate 0.23 mg/kg intragastric 2 times a day, 14 days, individual mice) was 0 mm^3, the Tumor volume ([3]; trifluoroacetate 0.46 mg/kg intragastric 2 times a day, 14 days, individual mice) was 0 mm^3 and the Body weight ([2]; K562/ADR-bearing mice, 0.23 mg/kg intragastric 2 times a day, listed as DDV, 0.23 mg/kg) was 19.7 g and 21.2 g and 19.1 g. For the same molecule, the Body weight ([2]; K562/ADR-bearing mice, 0.46 mg/kg intragastric 2 times a day, listed as DDV, 0.46 mg/kg) was 20.5 g and 23.2 g and 19.3 g.

In the case of CC(C)[C@]12O[C@H]1[C@@H]1O[C@]13[C@]1(O[C@H]1C[C@H]1C4=C(CC[C@@]13C)C(=O)OC4)[C@@H]2OC(=O)[C@H](Cc1ccc(O)cc1)NC(=O)[C@@H](N)Cc1ccccc1 [14-L-Phenylalanyl-L-tyrosine-TPL, 14-Levo-Phenylalanyl-Levo-tyrosine-Triptolide], the “growth of KG-1a in mice” value ([1]; 14 days) is reported as “significantly inhibit the growth”, the Tumor volume ([1]; 0.64 mg/kg, Overall) is reported as 0 mm^3 and the Tumor volume ([1]; trifluoroacetate 0.32 mg/kg intragastric 2 times a day, 14 days, individual mice, listed as LPT) is reported as 168.07 mm^3 and 93.12 mm^3 and 131.17 mm^3. For the same molecule, the Tumor volume ([1]; trifluoroacetate 0.64 mg/kg intragastric 2 times a day, 14 days, individual mice) was 0 mm^3, the Body weight ([2]; KG-1a-bearing mice, 0.32 mg/kg intragastric 2 times a day, listed as LPT, 0.32 mg/kg) was 20 g and 20.4 g and 21.4 g and the Body weight ([2]; KG-1a-bearing mice, 0.64 mg/kg intragastric 2 times a day, listed as LPT, 0.64 mg/kg) was 19.4 g and 16.1 g and 17.4 g.
